Assays:
C57BL/6 DIO mice = assay: DIO animal model of NAFLD/NASH in young mice (Example 16); assay type: in vivo; design: OGTT: unit not given beside the values; conditions: ad libitum in HFD; for % Weight change: 12 weeks; for OGTT: Day 82, 2 g/kg glucose PO; for OGTT / % HbA1c: ctrl HFD; for % Difference compared to ctrl: weight change vs HFD ctrl
Description: Species (number, sex, age/weight): C57BL/6 DIO mice (120+10 spares, male, ˜18 weeks of age) from Jackson Laboratories, Stock #380050. Note: 18 week old DIO mice sent sent with a minimum body weight of 39 grams. Spare animals may be used to replace study animals, as required, euthanized after completion of dose administration or transferred to Testing Facility Docket 07-12.
Cage Side Observations (Animal Health Checks): Cage side animal's health checks will be performed at least once daily to check for general health, mortality and moribundity. Clinical Observations: Clinical observations will be performed per exception. Body Weights: Body weights for all animals will be recorded prior to Day 1 and at least twice weekly thereafter, including prior to necropsy ([…]).
Dose Administration: Dosing for Groups 3-8 will be provided ad libitum in the diet. Dosing for Groups 9 (Saline) and 10 (Semaglutide at 123.4 μg/kg) in a 5 mL/kg volume, will begin on Day 1, and be performed 3 times weekly for 12 weeks by SC administration. Residual Test Article: All residual high fat diets will be frozen at nominally −20° C., and at the end of the study, several pellets of the diets for groups 2-9 (in 50-ml conical tubes) will be shipped to Sponsor, and the rest will be discarded. Residual control diets (group 1) will be stored ambient, and at the end of the study, several pellets in a 50 mL conical tube will be shipped to Sponsor and the rest is discarded. Residual test material for Group 10 will be stored at nominally −70° C., and at the end of the study, an aliquot of test material will be shipped to Sponsor, and the rest will be discarded.
(§1) Oral Glucose Tolerance Test (oGTT) On Day 82 (+/−2 days) an oGTT will be performed. Following an approximate 4 hour fast, 2 g/kg glucose (50% Dextrose diluted in sterile water for injection to a concentration of 0.4 g/mL) will be administered at 5 mL/kg via oral gavage (PO). Blood will be collected pre-glucose challenge (t=0) and at t=15, 30, 60, 90, and 120 minutes following the glucose challenge. Whole blood glucose levels will be evaluated at all time points using a handheld glucometer and will be reported in the Data Submission. This will be scheduled on a Tuesday or Thursday to avoid Group 9/10 dosing days.
as §1, with “Submission.” for “Submission. This will be scheduled on a Tuesday or Thursday to avoid Group 9/10 dosing days.”

Male DIO mice = assay: In vivo evaluation for glucose disposal and lipidemia in DIO mice (Example 11); conditions: for change in body weight from baseline: 30 days; for Cholesterol / HDL / LDL / NEFA / Triglycerides: terminal (fed) serum; for Fasting blood glucose levels (time 0 from OGTT): 28 days, 16 hour fast; for glucose AUC (0-120 min): OGTT day 28, glucose 2.0 g/kg PO
Procedure: The DIO mice were prepared by feeding male C57BL/6 mice a high fat diet (HFD, Research Diets D12492) from 6-14 weeks of age. DIO mice were housed individually and maintained on the HFD through the duration of study. A twelve-hour light cycle was maintained with room temperature maintained at 22-25° C. All of the mice were acclimated to the facility for 5 days prior to starting the study.
Following 5 days of facility acclimation, DIO mice were randomized into 8 groups of 10 based on body weight and blood glucose for assignment to treatment, as shown in Table 9:
All treatments were administered admixed in HFD (Research Diets, New Brunswick N.J.) and were provided ad libitum for 30 days. Drinking water for group 7 was supplemented with 1, 3 Butanediol at 3% concentration.
Body weight was recorded at baseline and twice weekly thereafter. Feed and water intakes were recorded each Monday, Wednesday, and Friday.
Blood samples (<3 μL) were obtained one hour post dose by tail clip at baseline and weekly thereafter for measurement of fed blood glucose by StatStrip. Additional anti-coagulated blood samples (100 μl, EDTA di-potassium salt) were obtained by tail clip one hour post-dose at baseline, day 14 and day 30. Anti-coagulated samples were quick frozen and stored on dry ice.
Animals were subjected to a 16 hour fast for performance of an oral glucose tolerance test (OGTT) on day 28. Blood samples were obtained via tail clip just prior to (8 am) and 15, 30, 60, 90, and 120 minutes post-glucose load (2.0 g/kg, PO) for assay of whole blood glucose (StatStrip). Feed was returned following last sample.
Animals were terminated on day 30-31 using CO2 inhalation and induction of pneumothorax. Terminal blood samples were obtained by cardiac puncture. Whole blood was processed to serum and analyzed for serum cholesterol, triglycerides, high density lipoprotein (HDL), low density lipoprotein (LDL) and non-esterified fatty acids (NEFA) using AU480 clinical analyzer.
Organ weights (liver, spleen, subcutaneous fat, inguinal fat, abdominal fat, and epididymal fat) were recorded. Sections of each fat were frozen or fixed in 4% paraformaldehyde/PBS, pH 6.9; Fat samples were placed on dry ice. Fixed liver samples (4% paraformaldehyde) were sent to Premier Laboratories for H&E staining and scoring for steatosis, inflammation and fibrosis. Spleen samples were prepared in ice cold 5% bovine serum albumin (BSA) in PBS or 4% paraformaldehyde. Sections of brain, heart, lung, and small and large intestine were fixed in 10% formalin.
All data are represented as group mean±SEM. Data were analyzed using JMP (SAS software). All normalizations were calculated using terminal body weight.
Baseline differences among groups were identified using Tukey-Kramer Hsd<0.05. Treatment effects compared to control were determined using Oneway ANOVA (*, p<0.05) followed by Dunnett's test where appropriate.

CC(=O)Oc1cc(OC(C)=O)c2c(c1)O[C@H](c1cc(OC(C)=O)c(OC(C)=O)c(OC(C)=O)c1)[C@H](OC(=O)c1cc(OC(C)=O)c(OC(C)=O)c(OC(C)=O)c1)C2 [Compound 4, [(2R,3R)-5,7-diacetoxy-2-(3,4,5-triacetoxyphenyl)chroman-3-yl] 3,4,5-triacetoxybenzoate]
% Weight change (C57BL/6 DIO mice): 19% | OGTT (C57BL/6 DIO mice): 25072 | % HbA1c (C57BL/6 DIO mice): 4.89% | % Difference compared to ctrl (C57BL/6 DIO mice): −4% | Abdominal fat (% BW) (Male DIO mice; 0.6% in HFD): 2.1 ± 0.2 % BW | Blood glucose (fed) change compared to baseline (Male DIO mice; 0.6% in HFD): −15.6±3.1% | Epididymal fat (% BW) (Male DIO mice; 0.6% in HFD): 4.7 ± 0.2 % BW | Inguinal fat (% BW) (Male DIO mice; 0.6% in HFD): 0.99 ± 0.17 % BW | Subcutaneous fat (% BW) (Male DIO mice; 0.6% in HFD): 4.9 ± 0.4 % BW | change in body weight from baseline (Male DIO mice; 0.6% in HFD): 13.5±2.0% | Abdominal fat (% BW) (Male DIO mice; 2% in HFD): 2.4 ± 0.1 % BW | Blood glucose (fed) change compared to baseline (Male DIO mice; 2% in HFD): −9.0±3.9% | Epididymal fat (% BW) (Male DIO mice; 2% in HFD): 4.5 ± 0.2 % BW | Inguinal fat (% BW) (Male DIO mice; 2% in HFD): 0.93 ± 0.08 % BW | Subcutaneous fat (% BW) (Male DIO mice; 2% in HFD): 5.5 ± 0.5 % BW | change in body weight from baseline (Male DIO mice; 2% in HFD): 16.4±1.1% | Abdominal fat (% BW) (Male DIO mice; 6% in HFD): 2.2 ± 0.1 % BW | Blood glucose (fed) change compared to baseline (Male DIO mice; 6% in HFD): −4.3±3.0% | Epididymal fat (% BW) (Male DIO mice; 6% in HFD): 4.7 ± 0.3 % BW | Inguinal fat (% BW) (Male DIO mice; 6% in HFD): 0.95 ± 0.08 % BW | Subcutaneous fat (% BW) (Male DIO mice; 6% in HFD): 5.0 ± 0.6 % BW | change in body weight from baseline (Male DIO mice; 6% in HFD): 15.7±1.0% | Cholesterol (Male DIO mice; 0.6% in HFD): 193.9 ± 11.0 mg/dL | HDL (Male DIO mice; 0.6% in HFD): 94.4 ± 4.0 mg/dL | LDL (Male DIO mice; 0.6% in HFD): 9.2 ± 0.9 mg/dL | NEFA (Male DIO mice; 0.6% in HFD): 1.2 ± 0.04 mEq/L | Triglycerides (Male DIO mice; 0.6% in HFD): 97.7 ± 10.1 mg/dL | Cholesterol (Male DIO mice; 2% in HFD): 208.2 ± 7.2 mg/dL | HDL (Male DIO mice; 2% in HFD): 99.0 ± 3.6 mg/dL | LDL (Male DIO mice; 2% in HFD): 10.7 ± 0.9 mg/dL | NEFA (Male DIO mice; 2% in HFD): 1.2 ± 0.06 mEq/L | Triglycerides (Male DIO mice; 2% in HFD): 91.1 ± 8.4 mg/dL | Cholesterol (Male DIO mice; 6% in HFD): 200.4 ± 14.2 mg/dL | HDL (Male DIO mice; 6% in HFD): 91.5 ± 5.1 mg/dL | LDL (Male DIO mice; 6% in HFD): 12.3 ± 0.9 mg/dL | NEFA (Male DIO mice; 6% in HFD): 1.1 ± 0.04 mEq/L | Triglycerides (Male DIO mice; 6% in HFD): 89.9 ± 5.7 mg/dL

CC(=O)Oc1cc(OC(C)=O)c2c(=O)c(OC(C)=O)c(-c3ccc(OC(C)=O)c(OC(C)=O)c3)oc2c1 [Compound 14, [2-acetoxy-4-(3,5,7-triacetoxy-4-oxo-chromen-2-yl)phenyl] acetate]
% Weight change (C57BL/6 DIO mice): 16% | OGTT (C57BL/6 DIO mice): 32591 | % HbA1c (C57BL/6 DIO mice): 6.93% | % Difference compared to ctrl (C57BL/6 DIO mice): −7% | Abdominal fat (% BW) (Male DIO mice; 6% in HFD): *0.98 ± 0.2 % BW | Blood glucose (fed) change compared to baseline (Male DIO mice; 6% in HFD): −23.1±4.9% | Epididymal fat (% BW) (Male DIO mice; 6% in HFD): *2.6 ± 0.3 % BW | Inguinal fat (% BW) (Male DIO mice; 6% in HFD): *0.40 ± 0.06 % BW | Subcutaneous fat (% BW) (Male DIO mice; 6% in HFD): *2.2 ± 0.4 % BW | Fasting blood glucose levels (time 0 from OGTT) (Male DIO mice; 6% in HFD): 63.1 ± 1.9 mg/dL | change in body weight from baseline (Male DIO mice; 6% in HFD): −11.9±1.3% | glucose AUC (0-120 min) (Male DIO mice; 6% in HFD): 25720.5 ± 895.5 mg/dL/min | Cholesterol (Male DIO mice; 6% in HFD): *121.5 ± 9.4 mg/dL | HDL (Male DIO mice; 6% in HFD): 79.4 ± 4.0 mg/dL | LDL (Male DIO mice; 6% in HFD): *4.9 ± 0.4 mg/dL | NEFA (Male DIO mice; 6% in HFD): *0.69 ± 0.03 mEq/L | Triglycerides (Male DIO mice; 6% in HFD): *64.0 ± 2.8 mg/dL

CC(=O)O[C@H]1OC[C@H](OC(C)=O)[C@H](OC(C)=O)[C@H]1OC(C)=O [Compound 53, (2R,3R,4S,5S)-tetrahydro-2H-pyran-2,3,4,5-tetrayl Tetraacetate]
% Weight change (C57BL/6 DIO mice): 10% | OGTT (C57BL/6 DIO mice): 25779 | % HbA1c (C57BL/6 DIO mice): 4.35% | % Difference compared to ctrl (C57BL/6 DIO mice): −13% | Abdominal fat (% BW) (Male DIO mice; 5% in HFD): *1.9 ± 0.2 % BW | Blood glucose (fed) change compared to baseline (Male DIO mice; 5% in HFD): −12.5±2.2% | Epididymal fat (% BW) (Male DIO mice; 5% in HFD): 4.1 ± 0.4 % BW | Inguinal fat (% BW) (Male DIO mice; 5% in HFD): 0.84 ± 0.11 % BW | Subcutaneous fat (% BW) (Male DIO mice; 5% in HFD): 4.0 ± 0.6 % BW | Fasting blood glucose levels (time 0 from OGTT) (Male DIO mice; 5% in HFD): 90.8 ± 5.7 mg/dL | change in body weight from baseline (Male DIO mice; 5% in HFD): −1.8±3.2% | glucose AUC (0-120 min) (Male DIO mice; 5% in HFD): 30151.5 ± 1680 mg/dL/min | Cholesterol (Male DIO mice; 5% in HFD): 163.3 ± 10.3 mg/dL | HDL (Male DIO mice; 5% in HFD): 88.9 ± 2.7 mg/dL | LDL (Male DIO mice; 5% in HFD): *6.5 ± 0.7 mg/dL | NEFA (Male DIO mice; 5% in HFD): *0.98 ± 0.05 mEq/L | Triglycerides (Male DIO mice; 5% in HFD): 84.8 ± 5.5 mg/dL

From patent publication US10953027B2, “Active agents and methods of their use for the treatment of metabolic disorders and nonalcoholic fatty liver disease” (Flagship Pioneering Innovations V, Inc., priority 2018, dated 2021)
